From article PMC5241826, “An extended N-H bond, driven by a conserved second-order interaction, orients the flavin N5 orbital in cholesterol oxidase” (Scientific Reports, 2017) come the findings set out here.

The target in the test is T1, cholesterol oxidase (COx; H/D-COx) (Streptomyces sp. SA-COO, UniProt P12676).
T1 construct: gene choA; secreted mature form; H/D-exchanged crystal
Kind of test: joint X-ray/neutron crystal structure, […] A neutron, […] A X-ray. Format: binding. The note with it: H/D-exchanged crystal (D2O soak), room-temperature neutron data, crystallised at pH 5.2; Gly120 N-H to FAD N5 hydrogen bond.

T1 sequence (P12676 43-546): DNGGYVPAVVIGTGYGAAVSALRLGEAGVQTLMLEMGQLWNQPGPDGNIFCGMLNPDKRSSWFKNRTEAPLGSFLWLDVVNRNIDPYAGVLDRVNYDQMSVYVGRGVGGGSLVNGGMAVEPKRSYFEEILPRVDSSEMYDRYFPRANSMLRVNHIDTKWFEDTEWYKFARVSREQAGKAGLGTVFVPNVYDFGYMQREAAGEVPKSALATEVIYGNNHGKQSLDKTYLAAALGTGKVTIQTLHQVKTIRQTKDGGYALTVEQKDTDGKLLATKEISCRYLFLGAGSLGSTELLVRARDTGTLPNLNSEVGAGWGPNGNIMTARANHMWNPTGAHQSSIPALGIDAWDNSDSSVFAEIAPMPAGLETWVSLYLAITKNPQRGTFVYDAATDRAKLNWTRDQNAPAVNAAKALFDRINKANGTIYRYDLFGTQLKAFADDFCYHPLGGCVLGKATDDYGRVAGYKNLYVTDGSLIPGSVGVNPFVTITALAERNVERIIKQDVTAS

On to `Cc1cc2nc3c(=O)[nH]c(=O)nc-3n(C[C@H](O)[C@H](O)[C@H](O)COP(=O)(O)OP(=O)(O)OC[C@H]3O[C@@H](n4cnc5c(N)ncnc54)[C@H](O)[C@@H]3O)c2cc1C` [FAD], for which the “joint X-ray/neutron crystal structure, 2.2 A neutron, 1.5 A X-ray” value was “one involved in a conserved hydrogen bond between Gly120-NH and FAD-N5”.
